Test results published in US20120315629A1, “Cloning and Expression of arNOX Protein Transmembrane 9 Superfamily (TM9SF), Methods and Utility” (Nox Technologies ,Inc., priority 2009, published 2012).

Molecular target: T1, Recombinant arNOX (TM9SF4) (Homo sapiens, UniProt Q92544)
T1 construct: cloning of the soluble fragment of TM9SF4 was successful; Met-Ala-Ser leader from NdeI/NheI of pET11b (my inference from the forward primer CATATGGCTAGCATG); made in house; host or cells: E. coli BL21 (DE3), pET11b
T1 sequence (Q92544 24-252): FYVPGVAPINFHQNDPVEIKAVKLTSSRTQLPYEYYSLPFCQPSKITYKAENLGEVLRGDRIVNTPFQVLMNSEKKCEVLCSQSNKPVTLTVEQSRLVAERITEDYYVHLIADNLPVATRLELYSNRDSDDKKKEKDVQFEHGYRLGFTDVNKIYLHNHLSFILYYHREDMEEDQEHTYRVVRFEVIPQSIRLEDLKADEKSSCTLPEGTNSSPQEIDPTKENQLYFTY
Test: arNOX activity: superoxide generation measured by reduction of ferricytochrome c
Assay type: biochemical
Conditions: test compounds added after 45 min, reaction continued for an additional 45 min; for inhibition of recombinant arNOX (TM9SF4) activity: extracts made in water unless otherwise indicated
Method: Reduction of ferric cytochrome c by superoxide was employed as a standard measure of superoxide formation (Mayo, L. A. and Curnutte, J., 1990, Meth. Enzymol. 186:567-575; Butler, J. et al., 1982, J. Biol. Chem. 257:10747-10750). This method, when coupled to superoxide dismutase inhibition, is generally accepted for the measurement of superoxide generation. The assay consists of 150 μl buffy coat material in PBSG buffer (8.06 g NaCl, 0.2 g KCl, 0.18 g Na2HPO4, 0.13 g CaCl2, 0.1 g MgCl2, 1.35 g glucose dissolved in 1000 ml deionized water, adjusted to pH 7.4, filtered and stored at 4° C.). Reduction of ferricytochrome c by superoxide was monitored as the increase in absorbance at 550 nm, with reference at 540 nm (Butler et al., 1982). As a further control for the specificity of the arNOX activity, 60 units of superoxide dismutase (SOD) were added near the end of the assay to ascertain that the rate returned to base line. Rates were determined using a SLM Aminco DW-2000 spectrophotometer in the dual wavelength mode of operation.
Rates were determined using an SLM Aminco DW-2000 spectrophotometer (Milton Roy, Rochester, N.Y.) in the dual wave length mode of operation with continuous measurements over 1 min every 1.5 min. After 45 min, test compounds were added and the reaction was continued for an additional 45 min. After 45 min, a millimolar extinction coefficient of 19.1 cm^−1 was used for reduced ferricytochrome c. The results of the test compounds are provided below (Table 4) for experiments carried out with TM9SF4, but from the results of FIG. 7, it is concluded that all the arNOX isoforms have similar responses to the various compounds given below. Extracts were made of the compounds in water unless otherwise indicated.

| Compound | inhibition of recombinant arNOX (TM9SF4) activity | sensitivity of recombinant arNOX (TM9SF4) activity to the compound (in words) |
| --- | --- | --- |
| O=C(O)c1cc(O)c(O)c(O)c1 [gallic acid] | 80% | – |
| CCC(C)C(=O)OC1C(=O)OC2CC3C(C)=CC(=O)C(O)C3(C)C3C(O)C(O)C4(C)OCC23C14 (stereo not drawn) [similikalactone D] | – | resistant |
| superoxide dismutase | 78% | – |
